The text below walks through data of patent publication US6107284A, “Water-soluble derivatives of epipodophyllotoxin, process for their preparation, their use as medicinal products and their intended use in anti-cancer treatments” (Pierre Fabre Medicament, priority 1994, dated 2000).

Structures can show the parent of a compound that is named as a salt. Where two headings read alike, the source gives them in different places.

One data set addresses topoisomerase II (Cricetulus griseus, UniProt P41515). Put plainly: Test of inhibition of the activity of topoisomerase II. The data set is classed as biochemical. To be noted: for IC50: in vitro, read-out: Test of inhibition of the activity of topoisomerase II (ED50 M). An excerpt: Measurement of the inhibition of the activity of topoisomerase II is made according to the procedure described in the literature: "Nuclear topoisomerase II levels correlate with the sensitivity of mammalian cells to intercalating Agents and Epipodophyllotoxins", I. D. Hickson et al., J. Biol. Chem. (1988), 263, 17724.

The conditions of data set [1]: background, known drugs; cited from earlier work.
Data set [2] can be described thus: Measurement of the water-solubility of the salts. Type of data set: physicochemical. To be noted: read-out: % solubility (weight/volume) expressed in g per 100 ml of water. An excerpt:
The amorphous or crystalline salts are obtained by simple freeze-drying. [drawing 4] Measurement of the Water-Solubility
The solubility in water of the salts of the phosphate or carboxylate derivatives by addition of physiologically acceptable organic amines such as, for example, N-methylglucamine, triethanolamine or lysine, or the salts with inorganic cations such as sodium, obtained in lyophilized form or by extemporaneous addition of a base to the free acid compound, gave the following results by way of example.

Chain of topoisomerase II (P41515 whole entry): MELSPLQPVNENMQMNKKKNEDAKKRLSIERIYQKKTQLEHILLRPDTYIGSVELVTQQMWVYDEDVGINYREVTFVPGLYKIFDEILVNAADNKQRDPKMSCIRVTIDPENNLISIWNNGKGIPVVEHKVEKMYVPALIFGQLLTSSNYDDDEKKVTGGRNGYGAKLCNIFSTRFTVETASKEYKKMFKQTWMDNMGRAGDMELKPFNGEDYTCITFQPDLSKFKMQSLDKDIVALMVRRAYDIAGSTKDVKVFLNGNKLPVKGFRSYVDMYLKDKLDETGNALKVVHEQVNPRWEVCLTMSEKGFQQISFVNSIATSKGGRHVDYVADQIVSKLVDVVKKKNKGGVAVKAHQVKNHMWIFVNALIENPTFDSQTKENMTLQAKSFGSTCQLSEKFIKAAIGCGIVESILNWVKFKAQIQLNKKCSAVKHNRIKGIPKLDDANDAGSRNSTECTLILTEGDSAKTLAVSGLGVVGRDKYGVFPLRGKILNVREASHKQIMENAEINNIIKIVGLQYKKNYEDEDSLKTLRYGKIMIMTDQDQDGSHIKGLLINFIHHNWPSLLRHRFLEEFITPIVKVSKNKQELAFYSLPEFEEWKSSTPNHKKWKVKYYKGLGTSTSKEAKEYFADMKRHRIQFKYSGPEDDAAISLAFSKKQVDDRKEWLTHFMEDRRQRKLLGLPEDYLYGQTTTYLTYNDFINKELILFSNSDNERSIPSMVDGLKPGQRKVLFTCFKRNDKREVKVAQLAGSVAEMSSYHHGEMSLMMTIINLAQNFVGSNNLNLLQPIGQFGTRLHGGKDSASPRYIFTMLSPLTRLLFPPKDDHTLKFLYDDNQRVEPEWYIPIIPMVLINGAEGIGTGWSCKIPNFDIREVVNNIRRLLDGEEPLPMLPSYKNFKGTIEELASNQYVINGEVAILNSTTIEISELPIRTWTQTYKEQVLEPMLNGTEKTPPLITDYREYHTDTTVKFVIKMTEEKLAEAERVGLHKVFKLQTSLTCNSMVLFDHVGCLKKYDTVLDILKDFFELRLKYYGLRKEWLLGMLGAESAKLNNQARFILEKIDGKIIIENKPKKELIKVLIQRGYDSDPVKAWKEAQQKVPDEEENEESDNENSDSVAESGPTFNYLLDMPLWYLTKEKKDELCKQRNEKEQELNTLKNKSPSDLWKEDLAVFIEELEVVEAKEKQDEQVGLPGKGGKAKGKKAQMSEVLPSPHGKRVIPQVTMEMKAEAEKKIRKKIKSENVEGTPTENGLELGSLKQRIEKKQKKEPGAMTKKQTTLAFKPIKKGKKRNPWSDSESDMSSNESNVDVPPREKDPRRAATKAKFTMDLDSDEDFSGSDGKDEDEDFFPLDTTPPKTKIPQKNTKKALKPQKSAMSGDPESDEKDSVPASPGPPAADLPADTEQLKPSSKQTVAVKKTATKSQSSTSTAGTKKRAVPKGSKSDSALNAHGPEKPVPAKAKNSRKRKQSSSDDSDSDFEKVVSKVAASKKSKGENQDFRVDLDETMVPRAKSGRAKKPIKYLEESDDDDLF

On to `COc1cc([C@@H]2c3cc4c(cc3[C@@H](O[C@@H]3O[C@@H]5CO[C@@H](C)O[C@H]5[C@H](O)[C@H]3O)[C@H]3COC(=O)[C@H]23)OCO4)cc(OC)c1OP(=O)(O)O` [Etopofos, reference compound], for which the IC50 at topoisomerase II was greater than 100 µM. Further, the “in vitro activity compared with etoposide (in words)” value at topoisomerase II (relative to etoposide) is recorded as “loss of in vitro activity”.

Regarding `COc1cc([C@@H]2c3cc4c(cc3[C@@H](O[C@@H]3O[C@@H]5CO[C@@H](C)O[C@H]5[C@H](O)[C@H]3O)[C@H]3COC(=O)[C@H]23)OCO4)cc(OC)c1O` [Etoposide, reference compound], the IC50 on topoisomerase II came out at 56 µM. Further, in data set [1], the “water-solubility (in words)” value is “lack of water-solubility”.

On to `COc1cc([C@@H]2c3cc4c(cc3[C@@H](O[C@@H]3O[C@@H]5CO[C@@H](C)O[C@H]5[C@H](OC(=O)COc5ccccc5)[C@H]3OC(=O)COc3ccccc3)[C@H]3COC(=O)[C@H]23)OCO4)cc(OC)c1OP(=O)(O)O` [Example 1, 4'-demethyl-4-O-(2,3-bisphenoxyacetyl-4,6-ethylidene-β-D-glucosyl)epipodophyllotoxin-4'-deoxy-4'-phosphate], for which the IC50 at topoisomerase II was 5.6 µM. Further, the solubility in data set [2] (N-methylglucamine salt) was determined as 5 mg/mL.

In the case of `COc1cc([C@@H]2c3cc4c(cc3[C@@H](O[C@@H]3O[C@@H]5CO[C@@H](C)O[C@H]5[C@H](OC(=O)COc5ccc(OC(F)(F)F)cc5)[C@H]3OC(=O)COc3ccc(OC(F)(F)F)cc3)[C@H]3COC(=O)[C@H]23)OCO4)cc(OC)c1OP(=O)(O)O` [Example 3, 4'-demethyl-4-O-(2,3-bis-(4-trifluoromethoxyphenoxyacetyl)-4,6-ethylidene-β-D-gluocosyl)epipodophyllotoxin-4'-deoxy-4'-phosphate, bis(N-methylglucamine) Salt], the IC50 at topoisomerase II worked out at 0.32 µM. The solubility in data set [2] (N-methylglucamine salt) amounted to 50 mg/mL.

In the case of `COc1cc([C@@H]2c3cc4c(cc3[C@@H](O[C@@H]3O[C@@H]5CO[C@@H](C)O[C@H]5[C@H](OC(=O)COc5ccc(F)cc5)[C@H]3OC(=O)COc3ccc(F)cc3)[C@H]3COC(=O)[C@H]23)OCO4)cc(OC)c1OP(=O)(O)O` [Example 4, 4'-demethyl-4-O-(2,3-bis(4-fluorophenoxyacetyl)-4,6-ethylidene-β-D-glucosyl)epipodophyllotoxin-4'-deoxy-4'-phosphate bis(N-methylglucamine) Salt], the IC50 at topoisomerase II was determined as 1.8 µM. Further, in data set [2] (N-methylglucamine salt), the solubility amounted to 100 mg/mL.

Turning to `COc1cc([C@@H]2c3cc4c(cc3[C@@H](O[C@@H]3O[C@@H]5CO[C@@H](C)O[C@H]5[C@H](OC(=O)COc5ccc(OP(=O)(O)O)cc5)[C@H]3OC(=O)COc3ccc(OP(=O)(O)O)cc3)[C@H]3COC(=O)[C@H]23)OCO4)cc(OC)c1OC(=O)COc1ccc(OP(=O)(O)O)cc1` [Example 6, 4'-(4-phosphonooxyphenoxyacetyl)-4'-demethyl-4-O-(2,3-bis(4-phosphonooxyphenoxyacetyl)-4,6-ethylidene-β-D-glucosyl)epipodophyllotoxin], the IC50 on topoisomerase II was 0.32 µM. Further, the solubility in data set [2] (N-methylglucamine salt) amounted to 100 mg/mL; in data set [2] (Sodium salt), 10 mg/mL; in data set [2] (lysine salt) it was 200 mg/mL; in data set [2] (triethanolamine salt), 200 mg/mL.

Turning to `COc1cc([C@@H]2c3cc4c(cc3[C@@H](O[C@@H]3O[C@@H]5CO[C@@H](C)O[C@H]5[C@H](OC(=O)COc5ccc(OP(=O)(O)O)cc5)[C@H]3OC(=O)COc3ccc(OP(=O)(O)O)cc3)[C@H]3COC(=O)[C@H]23)OCO4)cc(OC)c1OP(=O)(O)O` [Example 7, 4'-demethyl-4-O-(2,3-bis(4-phosphonooxyphenoxyacetyl)-4,6-ethylidene-β-D-glucosyl)epipodophyllotoxin-4'-deoxy-4'-phosphate], the IC50 at topoisomerase II was 56 µM. Moreover, in data set [2] (N-methylglucamine salt), the solubility turned out to be 100 mg/mL.

`COc1cc([C@@H]2c3cc4c(cc3[C@@H](O[C@@H]3O[C@@H]5CO[C@@H](C)O[C@H]5[C@H](OC(=O)COc5ccc(O)cc5)[C@H]3OC(=O)COc3ccc(O)cc3)[C@H]3COC(=O)[C@H]23)OCO4)cc(OC)c1OC(=O)N(CC(=O)O)CC(=O)O` [Example 11, 4'-(dicarboxymethylaminocarbonyl)-4'-demethyl-4-O-(2,3-bis(p-hydroxyphenoxyacetyl)-4,6-ethylidene-β-D-glucosyl)epipodophyllotoxin]: at topoisomerase II, the IC50 was determined as 5.6 µM. For the same compound, the solubility in data set [2] (N-methylglucamine salt) is 100 mg/mL.

With `COc1cc([C@@H]2c3cc4c(cc3[C@@H](O[C@@H]3O[C@@H]5CO[C@@H](C)O[C@H]5[C@H](OC(=O)CS(=O)(=O)c5ccccc5)[C@H]3OC(=O)CS(=O)(=O)c3ccccc3)[C@H]3COC(=O)[C@H]23)OCO4)cc(OC)c1OP(=O)(O)O` [Example 21, 4'-demethyl-4'-deoxy-4'-phosphate-4-O-(2,3-bis(phenylsulfonylacetyl)-4,6-ethylidene-β-D-glucosyl)epipodophyllotoxin], the IC50 at topoisomerase II stood at 5.6 µM. The solubility in data set [2] (N-methylglucamine salt) is 100 mg/mL.

Turning to `COc1cc([C@@H]2c3cc4c(cc3[C@@H](O[C@@H]3O[C@@H]5CO[C@@H](C)O[C@H]5[C@H](OC(=O)COc5ccc(OCC(=O)O)cc5)[C@H]3OC(=O)COc3ccc(OCC(=O)O)cc3)[C@H]3COC(=O)[C@H]23)OCO4)cc(OC)c1OC(=O)COc1ccc(OCC(=O)O)cc1` [Example 26, 4'-demethyl-4'-carboxymethoxyphenoxyacetyl-4-O-(2,3-bis(4-carboxymethoxyphenoxyacetyl)-4,6-ethylidene-β-D-glucosyl)epipodophyllotoxin], the IC50 at topoisomerase II turned out to be 5.6 µM. The solubility in data set [2] (N-methylglucamine salt) is 100 mg/mL.

As to `COc1cc([C@@H]2c3cc4c(cc3[C@@H](O[C@@H]3O[C@@H]5CO[C@@H](C)O[C@H]5[C@H](OC(=O)COc5ccc(Cl)cc5)[C@H]3OC(=O)COc3ccc(Cl)cc3)[C@H]3COC(=O)[C@H]23)OCO4)cc(OC)c1OP(=O)(O)O` [Example 27, 4'-demethyl-4'-deoxy-4'-phosphate-4-O-(2,3-bis(4-chlorophenoxyacetyl)-4,6-ethylidene-β-D-glucosyl)epipodophyllotoxin], the IC50 on topoisomerase II came to 0.76 µM. The solubility in data set [2] (N-methylglucamine salt) was 5 mg/mL.

For the compound `COc1cc([C@@H]2c3cc4c(cc3[C@@H](O[C@@H]3O[C@@H]5CO[C@@H](c6cccs6)O[C@H]5[C@H](O)[C@H]3O)[C@H]3COC(=O)[C@H]23)OCO4)cc(OC)c1O` [teniposide], in data set [1], the “water-solubility (in words)” value was “lack of water-solubility”.
